Test results taken from patent US10646469B2, “Substituted indole derivatives as dengue viral replication inhibitors” (Janssen Pharmaceuticals, Inc., priority 2016, dated 2020).
Read-outs that look alike come from different tables or passages of the source.

What was measured:
DENV-2 16681 strain = assay: DENV-2 antiviral assay (eGFP-labeled virus in Vero cells); format: cell-based, Dengue virus; conditions: Dengue virus, DENV2, Vero, 72 h, DENV-2 16681 eGFP, MOI 0.5, 3 days
How it was run: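 Vero cells (2500/well) pre-plated with compound (9-step 5-fold series), infected next day with eGFP-labeled DENV-2 16681 at MOI 0.5 in MEM with 2% FCS; 3 days at 37° C. eGFP fluorescence read at 488 nm; inhibition versus virus and cell controls, EC50 by linear interpolation.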

[1] = Toxicity on the same plates (ATPlite cell viability); conditions: African green monkey, CC50, Vero cells, same plates as DENV-2 antiviral assay
[2] = analogous DENV-2 antiviral assay, reported activity; cited from earlier work
DENV-2 = conditions: analogous DENV-2 antiviral assay, reported activity; cited from earlier work

Row | Compound | EC50 (DENV-2 16681 strain) [µM] | melting point [°C] | CC50 [1] [µM] | CC50 [2] [µM] | EC50 (DENV-2) [µM]
1 | COc1cc(NC(C(=O)c2c[nH]c3ccc(C(F)(F)F)cc23)c2ccc(F)cc2OC)cc(OCCO)c1 (racemic) [Compound 1, 2-(4-fluoro-2-methoxyphenyl)-2-((3-(2-hydroxyethoxy)-5-methoxyphenyl)amino)-1-(5-(trifluoromethyl)-1H-indol-3-yl)ethanone] | 0.0012 | 132 | 5.5 | – | –
2 | COc1cc(NC(C(=O)c2c[nH]c3c(C)cc(OC(F)(F)F)cc23)c2ccc(Cl)cc2OC)cc(OCCO)c1 (racemic) [Compound 16, 2-(4-chloro-2-methoxyphenyl)-2-((3-(2-hydroxyethoxy)-5-methoxyphenyl)amino)-1-(7-methyl-5-(trifluoromethoxy)-1H-indol-3-yl)ethanone] | 0.00019 | 105 | 2.5 | – | –
3 | COc1cc(NC(C(=O)c2c[nH]c3ccccc23)c2ccc(F)cc2)cc(OCCO)c1 (centres unmarked) [(350) of WO-2013/045516] | – | – | – | 46 | 0.01
4 | COc1cc(NC(C(=O)c2c[nH]c3cc(OC)c(C(F)(F)F)cc23)c2ccc(F)cc2OC)cc(OCCO)c1 (racemic) [Compound 2, 2-(4-fluoro-2-methoxyphenyl)-2-((3-(2-hydroxyethoxy)-5-methoxyphenyl)amino)-1-(6-methoxy-5-(trifluoromethyl)-1H-indol-3-yl)ethanone] | 0.00071 | 174 | 4.8 | – | –
5 | COc1cc(NC(C(=O)c2c[nH]c3cc(OC)c(OC(F)(F)F)cc23)c2ccc(F)cc2OC)cc(OCCO)c1 (racemic) [Compound 6, 2-(4-fluoro-2-methoxyphenyl)-2-((3-(2-hydroxyethoxy)-5-methoxyphenyl)amino)-1-(6-methoxy-5-(trifluoromethoxy)-1H-indol-3-yl)ethanone] | 0.00084 | 178 | 3.6 | – | –
